Data published in patent US20240251792A1, “WEED CONTROL METHOD” (SYNGENTA CROP PROTECTION AG, priority 2021, published 2024).

How the values were obtained:
Format in all cases: in vivo
Details in all cases: 1000 g/ha, after 12 days
AMARE [1] = experiment: Biological efficacy, pre-emergence glasshouse test (Table 2)
Method: (§1) Seeds of a variety of test species were shown in unsterilised compost in small pots. After cultivation for one day (pre-emergence) or seven days (post-emergence) in controlled conditions in the glasshouse (at 24/16° C., day/night; 14 hours light; 65% humidity) the plants were sprayed with 1 mg of the active ingredient, formulated in 466 μl of a acetone/water/Tween 20 (49.75:49.75:0.5) solution, which is equivalent to 1000 g/ha. Once the foliage was dry, the pots were kept in the glasshouse (at 24/16° C., day/night; 14 hours light; 65% humidity), and were watered twice daily. After 12 days the test was evaluated and scored (100=total damage to plant, 0=no damage to plant).

STEME [2] = experiment: as above
Method: as §1

DIGSA [3] = experiment: as above
Method: as §1

LOLPE [4] = experiment: as above
Method: as §1

AMARE [5] = experiment: Biological efficacy, post-emergence glasshouse test (Table 2)
Method: as §1

STEME [6] = experiment: as above
Method: as §1

DIGSA [7] = experiment: as above
Method: as §1

LOLPE [8] = experiment: as above
Method: as §1

| SMILES | score (100=total damage to plant, 0=no damage to plant) (AMARE [1]) | score (100=total damage to plant, 0=no damage to plant) (STEME [2]) | score (100=total damage to plant, 0=no damage to plant) (DIGSA [3]) | score (100=total damage to plant, 0=no damage to plant) (LOLPE [4]) | score (100=total damage to plant, 0=no damage to plant) (AMARE [5]) | score (100=total damage to plant, 0=no damage to plant) (STEME [6]) | score (100=total damage to plant, 0=no damage to plant) (DIGSA [7]) | score (100=total damage to plant, 0=no damage to plant) (LOLPE [8]) |
| --- | --- | --- | --- | --- | --- | --- | --- | --- |
| N#Cc1cccc(C(F)(F)C(=O)O)c1 [Compound 1-186] | 10 | 10 | 0 | 0 | 60 | 30 | 0 | 0 |
| CC(C)Oc1ccccc1C(F)(F)C(=O)O [Compound 1-341] | 30 | 30 | 0 | 10 | 80 | 60 | 20 | 10 |
| C#Cc1c(Cl)cccc1C(F)(F)C(=O)O [Compound 1-291, 2-(3-Chloro-2-ethynyl-phenyl)-2,2-difluoro-acetic acid] | 90 | 100 | 90 | 80 | 100 | 80 | 70 | 0 |
| CCOc1ccccc1C(F)(F)C(=O)O [Compound 1-328] | 50 | 40 | 0 | 0 | 80 | 60 | 0 | 0 |
| CCc1c(Cl)cccc1C(F)(F)C(=O)O [Compound 1-275, 2-(3-Chloro-2-ethyl-phenyl)-2,2-difluoro-acetic acid] | 100 | 100 | 80 | 60 | 90 | 80 | 30 | 0 |
| COc1ccc(F)cc1C(F)(F)C(=O)O [Compound 1-304] | 0 | 0 | 0 | 0 | 70 | 20 | 20 | 20 |
| COc1ccc(Cl)cc1C(F)(F)C(=O)O [Compound 1-305] | 0 | 0 | 0 | 0 | 50 | 0 | 0 | 0 |
| O=C(O)C(F)(F)c1ccc(OC(F)(F)F)c(Br)c1 [Compound 1-20] | 30 | 0 | 0 | 0 | 70 | 0 | 30 | 0 |
